How the values were obtained:
[1] = Radiochemical purity by HPLC over time after radiolabelling; assay type: physicochemical; details: validation batches, 25 mg ascorbic acid; for Radiochemical Purity (HPLC) Ga-68 PSMA-11 (%): 65.0-66.4 mCi, 5.74-6.15 mCi/mL, EZAG GalliaPharm
Method: (§1) Table 1 to Table 5 show the results of various radiolabelling experiments on radiochemical purity and the chelation yield. The radiolabelling experiments in the tables are carried out as described in: • Example 1 for when the gallium-68 source is GE Liquid target generator and EZAG GalliaPharm generator; • Example 2 for when the gallium-68 source is IRE Galli Eo generator; • Example 3 for when the gallium-68 source is GE solid target generator;
(§2) However, the experiments were carried out with the amount of ascorbic acid as indicated in the Tables 1 to 5, and the activity as indicated in the Tables 1 to 5. Radiochemical purities were measured at various times (T0, T1, T4, T6) after the radiolabelled experiments have been conducted.
(§3) The kits of Example 1, Example 2 or Example 3, with amounts of ascorbic acid as set out in Table 7 were used in the experiments for the ascorbic acid bracketing matrix. Three strengths of [^68Ga]Ga-PSMA-11 will be tested, i.e. 50 mCi/ml, 7 mCi/ml and 1 mCi/ml. Radiochemical purity was determined at different time points (TO, T1, T4 or T6), as set out in Table 7.

[2] = Visual inspection of [68Ga]PSMA-11 solution (acceptance: colourless to slightly yellow solution, free from visible particles); assay type: physicochemical; set-up: key: C = Conforms to specifications
Method: as §1, §2, §3

## O=C([O-])CN(CCN(CC(=O)[O-])Cc1cc(CCC(=O)NCCCCCC(=O)NCCCC[C@H](NC(=O)N[C@@H](CCC(=O)O)C(=O)O)C(=O)O)ccc1[O-])Cc1cc(CCC(=O)O)ccc1[O-].[68Ga+3].[OH3+] [[^68Ga]PSMA-11, gallium-68 radiolabelled Glu-urea-Lys-HBED-CC (gozetotide or PSMA-11)]
[1]; average of 3, T4 (4 h)
  Radiochemical Purity (HPLC) Ga-68 PSMA-11 (%): 100%
[1]; n=3, T0
  Radiochemical Purity (HPLC) Ga-68 PSMA-11 (%): C (C = all results conform to specifications)
[1]; n=3, T4 (4 h)
  Radiochemical Purity (HPLC) Ga-68 PSMA-11 (%): C (C = all results conform to specifications)
[1]; 537-551 mCi, 50.2-51.6 mCi/mL, GE Solid Target, average of 3, T0
  Radiochemical Purity (HPLC) Ga-68 PSMA-11: 100%
[1]; 537-551 mCi, 50.2-51.6 mCi/mL, GE Solid Target, average of 3, T6 (6 h)
  Radiochemical Purity (HPLC) Ga-68 PSMA-11: 100%
[1]; 537-551 mCi, 50.2-51.6 mCi/mL, GE Solid Target, n=3, T0
  Radiochemical Purity (HPLC) Ga-68 PSMA-11: C (C = all results conform to specifications)
[1]; 537-551 mCi, 50.2-51.6 mCi/mL, GE Solid Target, n=3, T6 (6 h)
  Radiochemical Purity (HPLC) Ga-68 PSMA-11: C (C = all results conform to specifications)
[1]; 555-564 mCi, 51.1-52.7 mCi/mL, ARTMS Solid Target, average of 3, T0
  Radiochemical Purity (HPLC) Ga-68 PSMA-11: 99%
[1]; 555-564 mCi, 51.1-52.7 mCi/mL, ARTMS Solid Target, average of 3, T6 (6 h)
  Radiochemical Purity (HPLC) Ga-68 PSMA-11: 100%
[1]; 555-564 mCi, 51.1-52.7 mCi/mL, ARTMS Solid Target, n=3, T0
  Radiochemical Purity (HPLC) Ga-68 PSMA-11: C (C = all results conform to specifications)
[1]; 555-564 mCi, 51.1-52.7 mCi/mL, ARTMS Solid Target, n=3, T6 (6 h)
  Radiochemical Purity (HPLC) Ga-68 PSMA-11: C (C = all results conform to specifications)
[2]; bracketing ~1 mCi/mL, 18.75 mg ascorbic acid, 8.9-11.5 mCi, 0.85-1.09 mCi/mL, IRE Galli Eo, n=2, T0
  Visual Inspection: C
[2]; bracketing ~1 mCi/mL, 18.75 mg ascorbic acid, 8.9-11.5 mCi, 0.85-1.09 mCi/mL, IRE Galli Eo, n=2, T1 (1 h)
  Visual Inspection: C
[2]; bracketing ~1 mCi/mL, 25 mg ascorbic acid, 8.8-12.7 mCi, 0.84-1.21 mCi/mL, 2 × IRE Galli Eo, n=2, T0
  Visual Inspection: C
[2]; bracketing ~1 mCi/mL, 25 mg ascorbic acid, 8.8-12.7 mCi, 0.84-1.21 mCi/mL, 2 × IRE Galli Eo, n=2, T1 (1 h)
  Visual Inspection: C
[2]; bracketing ~1 mCi/mL, 31.25 mg ascorbic acid, 15.2-26.9 mCi, 1.44-2.54 mCi/mL, EZAG GalliaPharm, n=2, T0
  Visual Inspection: C
[2]; bracketing ~1 mCi/mL, 31.25 mg ascorbic acid, 15.2-26.9 mCi, 1.44-2.54 mCi/mL, EZAG GalliaPharm, n=2, T1 (1 h)
  Visual Inspection: C
[2]; bracketing ~7 mCi/mL, 18.75 mg ascorbic acid, 51.0-58.0 mCi, 5.55-6.5 mCi/mL, IRE Galli Eo, n=2, T0
  Visual Inspection: C
[2]; bracketing ~7 mCi/mL, 18.75 mg ascorbic acid, 51.0-58.0 mCi, 5.55-6.5 mCi/mL, IRE Galli Eo, n=2, T4 (4 h)
  Visual Inspection: C
[2]; bracketing ~7 mCi/mL, 25 mg ascorbic acid, 51.6-74.4 mCi, 4.56-6.92 mCi/mL, 3 × GE Liquid Target, 3 × IRE Galli Eo, 3 × EZAG GalliaPharm, n=9, T0
  Visual Inspection: C
[2]; bracketing ~7 mCi/mL, 25 mg ascorbic acid, 51.6-74.4 mCi, 4.56-6.92 mCi/mL, 3 × GE Liquid Target, 3 × IRE Galli Eo, 3 × EZAG GalliaPharm, n=9, T4 (4 h)
  Visual Inspection: C
[2]; bracketing ~7 mCi/mL, 31.25 mg ascorbic acid, 61.5-62.0 mCi, 5.85-5.88 mCi/mL, EZAG GalliaPharm, n=2, T0
  Visual Inspection: C
[2]; bracketing ~7 mCi/mL, 31.25 mg ascorbic acid, 61.5-62.0 mCi, 5.85-5.88 mCi/mL, EZAG GalliaPharm, n=2, T4 (4 h)
  Visual Inspection: C
[2]; bracketing ~50 mCi/mL, 20 mg ascorbic acid, 514-544 mCi, 48.3-51.9 mCi/mL, GE Solid Target, n=2, T0
  Visual Inspection: C
[2]; bracketing ~50 mCi/mL, 20 mg ascorbic acid, 514-544 mCi, 48.3-51.9 mCi/mL, GE Solid Target, n=2, T6 (6 h)
  Visual Inspection: C
[2]; bracketing ~50 mCi/mL, 25 mg ascorbic acid, 537-551 mCi, 50.2-51.6 mCi/mL, GE Solid Target, n=3, T0
  Visual Inspection: C
[2]; bracketing ~50 mCi/mL, 25 mg ascorbic acid, 537-551 mCi, 50.2-51.6 mCi/mL, GE Solid Target, n=3, T6 (6 h)
  Visual Inspection: C
[2]; bracketing ~50 mCi/mL, 31.25 mg ascorbic acid, 500-544 mCi, 48.1-51.7 mCi/mL, GE Solid Target, n=2, T0
  Visual Inspection: C
[2]; bracketing ~50 mCi/mL, 31.25 mg ascorbic acid, 500-544 mCi, 48.1-51.7 mCi/mL, GE Solid Target, n=2, T6 (6 h)
  Visual Inspection: C
